Test results published in US10517889B2, “Modulators of SMAD7 expression” (Ionis Pharmaceuticals, Inc., priority 2017, dated 2019).

Columns and labels:
[1] = Plasma chemistry markers after subcutaneous administration in CD-1 mice (Example 6); assay type: in vivo; conditions: CD-1 mice plasma at day 46; 50 mg/kg subcutaneously twice a week for 7 weeks
[2] = Organ weights after subcutaneous administration in CD-1 mice (Example 6); assay type: in vivo; conditions: end of study, 50 mg/kg subcutaneously twice a week for 7 weeks
Summary of the method: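 Male CD-1 mice aged 8-9 weeks, 4 per group, were dosed subcutaneously twice weekly for 7 weeks with 50 mg/kg oligonucleotide (100 mg/kg/week), with PBS controls. Organ weights were assessed, and plasma was collected on day 28.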

[3] = Hematology assays after subcutaneous administration in CD-1 mice (Example 6); assay type: in vivo; set-up: RBC / Eosinophils / Monocytes: unit not given here; conditions: 50 mg/kg subcutaneous twice weekly for 7 weeks
Summary of the method: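 Male CD-1 mice, 8-9 weeks old, 4 per group, given oligonucleotides 50 mg/kg s.c. twice weekly (100 mg/kg/week) for 7 weeks; PBS group as control. Blood analysed on an automated hematology analyzer for blood cell counts and other markers; plasma collected day 28.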

[4] = Blood chemistry markers after oral gavage in CD-1 mice (Example 7); assay type: in vivo; conditions: 500 mg/kg oral gavage once daily for 4 weeks, day 30
Description: The objective of this study was to evaluate the tolerability and pharmacodynamics of select Ionis human SMAD7 antisense oligonucleotides in CD-1 mice following 4 weeks of treatment. The mice were administered oligonucleotides by oral gavage.
(§1) Groups of 7-8 week old male CD-1 mice were given an oral gavage dose once daily for 4 weeks of 500 mg/kg of Ionis SMAD7 oligonucleotides. Each group contained 8 mice. One group of male CD-1 mice was administered saline by oral gavage daily.
Levels of transaminases, albumin, and BUN were measured using a Toshiba 200FR NEO chemistry analyzer (Toshiba Co., Japan).

[5] = Body and organ weights after oral gavage in CD-1 mice (Example 7); assay type: in vivo; conditions: 500 mg/kg oral gavage once daily for 4 weeks, end of study
Description: as §1
Final body weights were measured at the end of the study. There was no significant difference in the body weight of the mice treated with antisense oligonucleotide compared to the control.
None of the Ionis SMAD7 oligonucleotides caused any changes in organ weights outside the expected range for antisense oligonucleotides.

[6] = Oligonucleotide concentrations in tissues by LC-MS/MS after oral gavage in CD-1 mice (Example 7); assay type: in vivo; conditions: 500 mg/kg oral gavage once daily for 4 weeks, 48 hours after last dose
Description: as §1
Oligonucleotide concentrations were detected in various tissues by LC-MS/MS analysis. The greatest concentration was found in the kidney, followed by the colon.

[7] = test system: dog SMAD7 mRNA; assay: Pharmacology: dog SMAD7 mRNA expression in liver, kidney, duodenum, ileum and colon after subcutaneous administration in beagle dogs (Example 8); assay type: in vivo; conditions: 30 mg/kg subcutaneous, necropsy, normalized to HPRT1
Description: There were 4 animals per group.
The pharmacological activity of the Ionis oligonucleotides in dogs was assessed by measuring dog SMAD7 mRNA expression in liver, kidney, duodenum, ileum, and colon at necropsy. All the human ASOs used are complementary to dog SMAD7 mRNA.
Tissue samples from all dogs were analyzed for SMAD7 mRNA expression using the primer probe set RTS34649 (forward sequence […], designated SEQ ID NO: 2740; reverse sequence […], designated SEQ ID NO: 2741; probe sequence […], designated SEQ ID NO: 2742), which was normalized to mRNA levels of the housekeeping gene, HPRT1. One-way ANOVA with Dunnet's comparison test was used for statistical analysis.

[8] = Plasma chemistry markers after subcutaneous administration in beagle dogs (Example 8); conditions: 30 mg/kg subcutaneous days 1, 3, 5, 8, 15, 22, 29, plasma at day 31
[9] = test system: human peripheral blood mononuclear cells (PBMCs); assay: Human PBMC activation assay, cytokine levels (IL-10, IL-6, MCP-1, TNF-α) in supernatant after 24 hours (Example 9); conditions: human PBMC supernatant after 24 hours
Description: Ionis SMAD7 oligonucleotides were tested in an in vitro assay for potential immunostimulatory properties in an in vitro human peripheral blood mononuclear cell (PBMC) activation assay.
Blood samples were collected from healthy human volunteers in heparinized vials and mixed well. Human PBMCs were isolated by gradient centrifugation using Ficoll-Histopaque. The cells were washed, counted and resuspended in medium. The PBMCs were plated in a 24-well culture plate and various concentrations of oligonucleotides were added to the media. An oligonucleotide historically known to promote an inflammatory response was used as a positive control, whereas an oligonucleotide known not to be pro-inflammatory was used as a negative control. […] The supernatants were collected after 24 hours and analyzed for cytokine levels using MSD platform.

798781 (CGTAAGATTCACAGCA; 3-10-3 cEt gapmer, further chemistry not given here) [compound 798781]
ALT [1]: 40 IU/L
AST [1]: 66 IU/L
Albumin [1]: 2.2 g/dL
BUN [1]: 26 mg/dL
Organ weights, Kidneys [2]: 0.6 g
Organ weights, Liver [2]: 2.3 g
Organ weights, Spleen [2]: 0.1 g
Eosinophils [3]: 2.4
Hematocrit [3]: 42.3%
Hemoglobin [3]: 13.8 g/dL
Lymphocytes [3]: 73.7%
MCH [3]: 14.9 pg
MCHC [3]: 32.6 g/dL
MCV [3]: 45.8 fL
Monocytes [3]: 5.2
Neutrophils [3]: 18.8%
RBC [3]: 9.3
Reticulocytes [3]: 3.3%
WBC [3]: 4.9 10^3/μL
platelets [3]: 867.3 10^3/μL
ALT [4]: 43 IU/L
AST [4]: 73 IU/L
Albumin [4]: 3.2 g/dL
BUN [4]: 25 mg/dL
Bilirubin [4]: 0.3 mg/dL
Body weight [5]: 35 g
Heart weight [5]: 0.17 g
Kidneys weight [5]: 0.64 g
Liver with gallbladder weight [5]: 1.86 g
Spleen weight [5]: 0.09 g
Oligonucleotide concentration, Colon ([6]; colon): 4.4 µg/g
Oligonucleotide concentration, Duodenum ([6]; duodenum): 0.7 µg/g
Oligonucleotide concentration, Ileum ([6]; ileum): 2.9 µg/g
Oligonucleotide concentration, Kidney ([6]; kidney): 45.2 µg/g
Oligonucleotide concentration, Liver ([6]; liver): 2.9 µg/g
% inhibition of SMAD7 mRNA expression (compared to control), Distal colon ([7]; distal colon): 34%
% inhibition of SMAD7 mRNA expression (compared to control), Duodenum ([7]; duodenum): 0%
% inhibition of SMAD7 mRNA expression (compared to control), Ileum ([7]; ileum): 0%
% inhibition of Smad7 mRNA expression (compared to control), Kidney ([7]; kidney): 28%
% inhibition of Smad7 mRNA expression (compared to control), Liver ([7]; liver): 0%
% inhibition of SMAD7 mRNA expression (compared to control), Proximal colon ([7]; proximal colon): 26%
ALT [8]: 32 IU/L
AST [8]: 45 IU/L
Albumin [8]: 3.0 g/dL
BUN [8]: 19.4 mg/dL
Bilirubin [8]: 0.2 mg/dL
Creatine [8]: 0.9 mg/dL
Levels of IL-6 ([9]; 0.0128 μM oligonucleotide): 3.4 pg/mL
Levels of IL-10 ([9]; 0.0128 μM oligonucleotide): 2.2 pg/mL
Levels of MCP-1 ([9]; 0.0128 μM oligonucleotide): 332.9 pg/mL
Levels of TNF-α ([9]; 0.0128 μM oligonucleotide): 2.6 pg/mL
Levels of IL-6 ([9]; 0.064 μM oligonucleotide): 4.9 pg/mL
Levels of IL-10 ([9]; 0.064 μM oligonucleotide): 2.0 pg/mL
Levels of MCP-1 ([9]; 0.064 μM oligonucleotide): 387.0 pg/mL
Levels of TNF-α ([9]; 0.064 μM oligonucleotide): 3.3 pg/mL
Levels of IL-6 ([9]; 0.32 μM oligonucleotide): 6.9 pg/mL
Levels of IL-10 ([9]; 0.32 μM oligonucleotide): 2.3 pg/mL
Levels of MCP-1 ([9]; 0.32 μM oligonucleotide): 483.1 pg/mL
Levels of TNF-α ([9]; 0.32 μM oligonucleotide): 3.8 pg/mL
Levels of IL-6 ([9]; 1.6 μM oligonucleotide): 12.3 pg/mL
Levels of IL-10 ([9]; 1.6 μM oligonucleotide): 3.9 pg/mL
Levels of MCP-1 ([9]; 1.6 μM oligonucleotide): 597.2 pg/mL
Levels of TNF-α ([9]; 1.6 μM oligonucleotide): 5.1 pg/mL
Levels of IL-6 ([9]; 8 μM oligonucleotide): 18.1 pg/mL
Levels of IL-10 ([9]; 8 μM oligonucleotide): 2.9 pg/mL
Levels of MCP-1 ([9]; 8 μM oligonucleotide): 582.7 pg/mL
Levels of TNF-α ([9]; 8 μM oligonucleotide): 6.5 pg/mL
Levels of IL-6 ([9]; 40 μM oligonucleotide): 20.7 pg/mL
Levels of IL-10 ([9]; 40 μM oligonucleotide): 1.4 pg/mL
Levels of MCP-1 ([9]; 40 μM oligonucleotide): 565.8 pg/mL
Levels of TNF-α ([9]; 40 μM oligonucleotide): 6.3 pg/mL
Levels of IL-6 ([9]; 200 μM oligonucleotide): 28.0 pg/mL
Levels of IL-10 ([9]; 200 μM oligonucleotide): 0.6 pg/mL
Levels of MCP-1 ([9]; 200 μM oligonucleotide): 61.3 pg/mL
Levels of TNF-α ([9]; 200 μM oligonucleotide): 4.0 pg/mL
